The results in this text go back to US7291612B2, “Immunomodulatory compounds” (Active Biotech A.B., priority 2002, dated 2007).

Counter-ions that a name gives are not always drawn. Bounds are passed on as bounds.

In one assay the target is T1, CD80-CD28 interaction (Homo sapiens, UniProt P33681).
T1 construct: mouse Fab fragment (fusion partner)
T1 sequence (P33681 35-242 limits assumed): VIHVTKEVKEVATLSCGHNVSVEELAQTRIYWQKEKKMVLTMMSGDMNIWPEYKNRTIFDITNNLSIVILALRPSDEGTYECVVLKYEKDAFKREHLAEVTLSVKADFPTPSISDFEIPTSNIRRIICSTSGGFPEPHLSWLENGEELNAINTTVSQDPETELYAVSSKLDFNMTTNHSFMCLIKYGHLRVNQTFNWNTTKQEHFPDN
As to the kind of experiment: cell free Homogenous Time Resolved Fluorescence (HTRF) assay, inhibition of the CD80-CD28 interaction. The class given is binding. As to conditions: 4 hours at room temperature, read-out: Activity (EC50 in summary form). As for the experimental part:
The examples described above were tested in a cell free Homogenous Time Resolved Fluorescence (HTRF) assay to determine their activity as inhibitors of the CD80-CD28 interaction.
In the assay, europium and allophycocyanin (APC) are associated with CD28 and CD80 indirectly (through antibody linkers) to form a complex, which brings the europium and APC into close proximity to generate a signal. The complex comprises the following six proteins: fluorescent label 1, linker antibody 1, CD28 fusion protein, CD80 fusion protein, linker antibody 2, and fluorescent label 2. The table below describes these reagents in greater detail.
On formation of the complex, europium and APC are brought into proximity and a signal is generated.
Non-specific interaction was measured by substituting a mouse Fab fragment (C215) for the CD80 mouse Fab fragment fusion protein (1.9 μg/ml). The assay was carried out in black 384 well plates in a final volume of 30 μl. Assay buffer: 50 mM Tris-HCl, 150 mM NaCl pH7.8, containing 0.1% BSA (w/v) added just prior to use.
Compounds were added to the above reagents in a concentration series ranging between 100 μM-1.7 nM. The reaction was incubated for 4 hours at room temperature. Dual measurements were made using a Wallac Victor 1420 Multilabel Counter. First measurement: excitation 340 nm, emission 665 nm, delay 50 μs, window time 200 μs. second measurement: excitation 340 nm, emission 615 nm, delay 50 μs, window time 200 μs. Counts were automatically corrected for fluorescence crossover, quenching and background.
For orientation: TR-FRET usually uses a lanthanide donor and a delayed reading to cut background.
With `CCOC(=O)C1CCN(C(=O)c2cccc(-n3nc4c5cccc(F)c5[nH]cc-4c3=O)c2)CC1` [Example 64], the EC50 (as a rule, the concentration needed to bring the measured effect to its halfway point) is over 10000 nM.

`COC(=O)CNC(=O)c1cccc(-n2nc3c4cccc(F)c4[nH]cc-3c2=O)c1` [Example 61]: the EC50 was over 10000 nM.

As to `O=C(NCCc1ccccn1)c1ccc(-n2nc3c4cccc(F)c4[nH]c(C4CC4)c-3c2=O)cc1` [Example 138], the half-maximal effective concentration (EC50) lay within 1000 to 10000 nM.

On to `O=C(CNCCCN1CCCC1=O)Nc1ccc(-n2nc3c4cccc(F)c4[nH]cc-3c2=O)cc1` [Example 35], for which the EC50 was under 1000 nM.

Consider `CCNC(=O)c1ccc(-n2nc3c4cccc(F)c4[nH]cc-3c2=O)cc1` [Example 77], for which the EC50 was under 1000 nM.

As for `CCCCC(CC)C(=O)Nc1ccc(-n2nc3c4cccc(F)c4[nH]cc-3c2=O)cc1` (centres unmarked) [Example 17], the EC50 is over 10000 nM.

Consider `CN(C)CCCNC(=O)c1ccc(-n2nc3c4ccccc4scc-3c2=O)cc1` [Example 165, N-[3-(dimethylamino)propyl]-4-(3-oxothiochromeno[4,3-c]pyrazol-2(3H)-yl)benzamide], for which the EC50 was 1000 to 10000 nM.

As to `CN(C)CCNC(=O)c1ccc(-n2nc3c4cccc(F)c4[nH]cc-3c2=O)cc1` [Example 71], the 50% effective concentration (EC50) is under 1000 nM.

Take `O=C(CN1CCN(C2CCCCCC2)CC1)Nc1ccc(-n2nc3c4cccc(F)c4[nH]cc-3c2=O)cc1` [Example 34]: the EC50 is under 1000 nM.

In the case of `CN(C)CCCCNC(=O)c1ccc(-n2nc3c4cccc(F)c4[nH]cc-3c2=O)cc1` [Example 81], the EC50 is under 1000 nM.

As for `O=C(NCCc1ccccn1)c1ccc(-n2nc3c4cccc(F)c4[nH]cc-3c2=O)cc1` [Example 127], the EC50 was over 10000 nM.

With `COCCCNC(=O)c1ccc(-n2nc3c4cccc(F)c4[nH]cc-3c2=O)cc1` [Example 73], the EC50 was under 1000 nM.

On to `CC(C)(C)OC(=O)N1CCC(NC(=O)c2ccc(-n3nc4c5cccc(F)c5[nH]c(C5CC5)c-4c3=O)cc2)CC1` [Example 136], for which the EC50 is 1000 to 10000 nM.

Take `CN(C)c1ccc(CNC(=O)c2ccc(-n3nc4c5cccc(F)c5[nH]cc-4c3=O)cc2)cc1` [Example 109]: the EC50 is under 1000 nM.

On to `COC(=O)C(=O)Nc1ccc(-n2nc3c4cccc(F)c4[nH]cc-3c2=O)cc1` [Example 12], for which the EC50 lay within 1000 to 10000 nM.

In the case of `C[N+](C)(C)CCCC(=O)Nc1ccc(-n2nc3c4cccc(F)c4[nH]cc-3c2=O)cc1` [Example 29], the concentration for a half-maximal effect (EC50) is under 1000 nM.

For `CCOC(=O)Nc1ccc(-n2nc3c4cccc(F)c4[nH]cc-3c2=O)cc1` [Example 151], the EC50 fell in the range of 1000 to 10000 nM.

As to `O=C(NCCCN1CCN(Cc2c(F)cccc2Cl)CC1)c1ccc(-n2nc3c4ccccc4[nH]cc-3c2=O)cc1` [Example 92], the EC50 is 1000 to 10000 nM.

As for `CCN(CC)CCCC(C)NC(=O)c1ccc(-n2nc3c4cccc(F)c4[nH]cc-3c2=O)cc1` (centres unmarked) [Example 97], the EC50 is under 1000 nM.

Regarding `CC(=O)Nc1ccc(-n2nc3c4cccc(F)c4[nH]cc-3c2=O)cc1` [Example 16], the EC50 lay within 1000 to 10000 nM.

On to `CN(Cc1ccccc1)C(=O)c1cccc(-n2nc3c4cccc(F)c4[nH]cc-3c2=O)c1` [Example 63], for which the EC50 was 1000 to 10000 nM.

As to `CCN(CC)CCCCNC(=O)Nc1ccc(-n2nc3c4cccc(F)c4[nH]cc-3c2=O)cc1` [Example 158], the EC50 is under 1000 nM.

With `CN(Cc1ccccc1)C(=O)c1ccc(-n2nc3c4cccc(F)c4[nH]cc-3c2=O)cc1` [Example 69], the EC50 was in the range of 1000 to 10000 nM.

With `CCC(C)C(=O)Nc1ccc(-n2nc3c4ccccc4[nH]cc-3c2=O)cc1` (centres unmarked) [Example 47], the EC50 is 1000 to 10000 nM.

As to `CN(C)CCCNC(=O)c1ccc(-n2nc3c4cccc(F)c4[nH]cc-3c2=O)cc1` [Example 66, N-(3-Dimethylaminopropyl)-4-(6-fluoro-3-oxo-3,5-dihydro-pyrazolo[4,3-c]quinolin-2-yl]-benzamide hydrochloride], the EC50 was under 1000 nM.

As for `CN1C(C)(C)CC(NC(=O)c2ccc(-n3nc4c5ccccc5[nH]c(C5CC5)c-4c3=O)cc2)CC1(C)C` [Example 129], the EC50 is under 1000 nM.

Take `O=C(NC1CCN(Cc2ccccc2)CC1)c1ccc(-n2nc3c4cccc(F)c4[nH]c(C4CC4)c-3c2=O)cc1` [Example 125]: the EC50 was under 1000 nM.

As to `Cn1cccc1C(=O)Nc1ccc(-n2nc3c4cccc(F)c4[nH]cc-3c2=O)cc1` [Example 3, 1-Methyl-1H-pyrrole-2-carboxylic acid [4-(6-fluoro-3-oxo-3,5-dihydro-pyrazolo[4,3-c]quinolin-2-yl)-phenyl]-amide], the EC50 is over 10000 nM.

With `CN1CCN(CCCNC(=O)c2ccc(-n3nc4c5cccc(F)c5[nH]cc-4c3=O)cc2)CC1` [Example 98], the EC50 is under 1000 nM.

Regarding `N[C@H]1CC[C@H](NC(=O)c2ccc(-n3nc4c5cccc(F)c5[nH]cc-4c3=O)cc2)CC1` [Example 79], the EC50 was under 1000 nM.

As for `O=C(NCc1ccccc1)c1ccc(-n2nc3c4cccc(F)c4[nH]cc-3c2=O)cc1` [Example 68], the 50% effective concentration (EC50) is under 1000 nM.

For `COCCNC(=O)c1ccc(-n2nc3c4cccc(F)c4[nH]cc-3c2=O)cc1` [Example 70], the EC50 was under 1000 nM.

For `O=C(c1ccc(-n2nc3c4cccc(F)c4[nH]cc-3c2=O)cc1)N1CCN(Cc2ccc(Cl)cc2)CC1` [Example 105], the 50% effective concentration (EC50) is over 10000 nM.

In the case of `CN1CCN(CCCNC(=O)c2ccc(-n3nc4c5ccccc5[nH]cc-4c3=O)cc2)CC1` [Example 93], the 50% effective concentration (EC50) lay within 1000 to 10000 nM.

As for `CN1C(C)(C)CC(NCC(=O)Nc2ccc(-n3nc4c5cccc(F)c5[nH]cc-4c3=O)cc2)CC1(C)C` [Example 33], the concentration giving a half-maximal response (EC50) was under 1000 nM.

With `CN(C)CCCNC(=O)c1ccc(-n2nc3c4ccccc4[nH]c(C4CC4)c-3c2=O)cc1` [Example 65, N-(3-Dimethylaminopropyl)-4-(4-cyclopropyl-3-oxo-3,5-dihydro-pyrazolo[4,3-c]quinolin-2-yl]-benzamide], the EC50 was under 1000 nM.

Take `O=c1c2c[nH]c3c(F)cccc3c-2nn1-c1ccc(NC(=S)NC2CC2)cc1` [Example 148]: the EC50 lay within 1000 to 10000 nM.

On to `O=C(NCc1ccccc1)c1cccc(-n2nc3c4cccc(F)c4[nH]cc-3c2=O)c1` [Example 52, N-Benzyl-3-(6-fluoro-3-oxo-3,5-dihydro-pyrazolo[4,3-c]-quinolin-2-yl)-benzamide], for which the EC50 was over 10000 nM.

Regarding `C#CCNC(=O)c1cccc(-n2nc3c4cccc(F)c4[nH]cc-3c2=O)c1` [Example 62], the EC50 is 1000 to 10000 nM.

`O=C(NCCCNC1CCCCC1)c1ccc(-n2nc3c4cccc(F)c4scc-3c2=O)cc1` [Example 170, N-[(cyclohexylamino)propyl]-4-(6-fluoro-3-oxothiochromeno[4,3-c]pyrazol-2(3H)-yl)benzamide]: the 50% effective concentration (EC50) lay within 1000 to 10000 nM.

As for `CN(C)CCCNC(=O)c1ccc(-n2nc3c4cccc(F)c4scc-3c2=O)cc1` [Example 169, N-[3-(dimethylamino)propyl]-4-(6-fluoro-3-oxothiochromeno[4,3-c]pyrazol-2(3H)-yl)benzamide], the EC50 lay in the range of 1000 to 10000 nM.

Consider `O=C(NCCc1cccnc1)c1ccc(-n2nc3c4cccc(F)c4[nH]cc-3c2=O)cc1` [Example 119], for which the concentration giving a half-maximal response (EC50) lay within 1000 to 10000 nM.

As for `CCN(CC)C(=O)c1cccc(-n2nc3c4cccc(F)c4[nH]cc-3c2=O)c1` [Example 60], the EC50 is over 10000 nM.

Take `CC(C)C(C)NC(=S)Nc1ccc(-n2nc3c4cccc(F)c4[nH]cc-3c2=O)cc1` (centres unmarked) [Example 157]: the EC50 was 1000 to 10000 nM.

Consider `O=C(Nc1ccc(-n2nc3c4cccc(F)c4[nH]cc-3c2=O)cc1)OC1CCN(Cc2ccccc2)CC1` [Example 155], for which the EC50 lay within 1000 to 10000 nM.

Regarding `O=C(c1ccc(-n2nc3c4cccc(F)c4[nH]cc-3c2=O)cc1)N1CCCCC1` [Example 67], the EC50 fell in the range of 1000 to 10000 nM.

`CN(C)CCCN(C)C(=O)c1ccc(-n2nc3c4cccc(F)c4[nH]cc-3c2=O)cc1` [Example 80]: the EC50 was under 1000 nM.

As to `CCCc1c(C(=O)Nc2ccc(-n3nc4c5cccc(F)c5[nH]cc-4c3=O)cc2)cnn1-c1ccccc1` [Example 14], the EC50 is over 10000 nM.

`CN(C)CCCCNC(=O)c1ccc(-n2nc3c4cccc(F)c4[nH]cc-3c2=O)cc1Cl` [Example 110]: the EC50 was in the range of 1000 to 10000 nM.

In the case of `CCN1CCCC1CNC(=O)c1ccc(-n2nc3c4cccc(F)c4[nH]cc-3c2=O)cc1` (centres unmarked) [Example 114], the EC50 is under 1000 nM.

Regarding `CN(C)CCCOC(=O)Nc1ccc(-n2nc3c4cccc(F)c4[nH]cc-3c2=O)cc1` [Example 154], the EC50 was under 1000 nM.

Staying with this assay, now noted: read-out: EC50.
`O=C(CNCCCN1CCCC1=O)Nc1ccc(-n2nc3c4cccc(F)c4[nH]cc-3c2=O)cc1` [Example 35]: the EC50 came to 148 nM.

For `C[N+](C)(C)CCCC(=O)Nc1ccc(-n2nc3c4cccc(F)c4[nH]cc-3c2=O)cc1` [Example 29], the EC50 came out at 950 nM.
